What was measured:
[1] = Equivalent doses of glucocorticoids (hydrocortisone equivalents) for systemic glucocorticoid therapy; details: per 1 mg of the glucocorticoid
Procedure: The term “hydrocortisone equivalents” is used herein to define the amount in mg of a specific glucocorticoid that corresponds to 1 mg of hydrocortisone for the purpose of systemic glucocorticoid therapy as generally understood by medical practitioners. The term is based on the fact that the individual glucocorticoids have different potencies and in order to achieve a desired therapeutic effect different doses of the individual glucocorticoids are required. Equivalent doses of the glucocorticoids can be calculated based on the following table.

[2] = equivalent dose for systemic glucocorticoid therapy; cited from earlier work
[3] = In vivo plasma cortisol profile in healthy volunteers with suppressed endogenous glucocorticoid secretion; design: species or system human
Procedure: The in vivo experiments reported herein were carried out on healthy volunteers. At 6 pm and 11 pm the day before administration of the test composition, the endogenous cortisol secretion was suppressed by oral administration of 2 mg of betamethasone.
The test composition was administered to healthy volunteers. The volunteers were in fasted state and were not allowed to take any food until noon. In the case a tablet is administered, it is ingested together with 200 ml of water. The test composition is administered between 8 am and 10 am on the day following the suppression of endogenous glucocorticoid secretion.
In vivo plasma profiles in humans, N=1 per composition
Dexamethasone suppression test, fasting state, otherwise as described in the paragraph denoted “Method”.
Two films were prepared essentially similar to Example 20—composition A. Film A contains 10 mg of hydrocortisone and film B contains 11.2 mg of hydrocortisone acetate.
The hydrocortisone compositions were tested in two human subjects after labial administration. The subjects had their endogenous glucocorticoid secretion suppressed by synthetic glucocorticoids. The plasma concentration of cortisol was monitored during 360 min after the labial administration, and the serum concentration time profiles from these two different subjects are shown in FIGS. 10 and 11.
The compositions were tested after oral administration to two human subjects (FIG. 12).

SMILES: C[C@]12C=CC(=O)C=C1CC[C@@H]1[C@@H]2[C@@H](O)C[C@@]2(C)[C@H]1CC[C@]2(O)C(=O)CO [Prednisolone]
- Hydrocortisone equivalent (1 mg of the glucocorticoid corresponds to the listed amount in mg of hydrocortisone) [1]: 4 mg
- Equivalent amount [2]: 5 mg

SMILES: C[C@]12C=CC(=O)C=C1CC[C@H]1[C@@H]3C[C@@H](O)[C@](O)(C(=O)CO)[C@@]3(C)C[C@H](O)[C@@]12F [Triamcinolone]
- Hydrocortisone equivalent (1 mg of the glucocorticoid corresponds to the listed amount in mg of hydrocortisone) [1]: 5 mg
- Equivalent amount [2]: 4 mg

SMILES: CC(=O)OCC(=O)[C@@]1(O)CC[C@H]2[C@@H]3CCC4=CC(=O)CC[C@]4(C)[C@H]3[C@@H](O)C[C@@]21C [hydrocortisone acetate]
- suitability for immediate release judged from in vivo plasma profiles ([3]; Example 18 thin-layer films, humans, N=1 per composition, fasting state, FIGS. 5-7): does not seem to be suitable for an immediate release composition

SMILES: CC(=O)OCC(=O)[C@@]1(O)CC[C@H]2[C@@H]3CCC4=CC(=O)CC[C@]4(C)[C@H]3C(=O)C[C@@]21C [Cortisone acetate]
- Hydrocortisone equivalent (1 mg of the glucocorticoid corresponds to the listed amount in mg of hydrocortisone) [1]: 0.8 mg
- Equivalent amount [2]: 25 mg

SMILES: C[C@@H]1C[C@H]2[C@@H]3C[C@H](F)C4=CC(=O)C=C[C@]4(C)[C@H]3[C@@H](O)C[C@]2(C)[C@@]1(O)C(=O)CO [Paramethasone]
- Hydrocortisone equivalent (1 mg of the glucocorticoid corresponds to the listed amount in mg of hydrocortisone) [1]: 10 mg
- Equivalent amount [2]: 2 mg

SMILES: C[C@]12CCC(=O)C=C1CC[C@@H]1[C@@H]2[C@@H](O)C[C@@]2(C)[C@H]1CC[C@]2(O)C(=O)CO [Hydrocortisone]
- Hydrocortisone equivalent (1 mg of the glucocorticoid corresponds to the listed amount in mg of hydrocortisone) [1]: 1 mg
- time at which the first measured plasma concentration of cortisol was attained ([3]; Example 20 thin-layer film, 10 mg hydrocortisone, labial administration, two human subjects, FIGS. 10 and 11): 10 to 15 min
- rate and extent of mucosal uptake ([3]; Example 20 thin-layer film, labial administration, two human subjects): high
- Equivalent amount [2]: 20 mg

From patent US10583146B2, “Pharmaceutical compositions for glucocorticoid replacement therapy” (Shire ViroPharma Incorporated, priority 2004, dated 2020)
